Legend:
tetrameric TTR [1] = target: T1, tetrameric TTR (Homo sapiens, UniProt P02766, V50M); assay: Phase 2 study, Western blot of tetrameric TTR ex vivo; format: in vivo; settings: individual with V30M TTR mutation, 800 mg b.i.d.
T1 construct: monitoring TTR serum concentrations in trial participants; from tissue; host or cells: serum / plasma of ATTR-CM patients
Method: (§2) Blood plasma samples from the subject are diluted with acidification buffer (sodium acetate, KCl, EDTA, DTT, pH about 4.0) for both the 0 and 72 hour time point. Time 0 hr samples are directly cross-linked with glutaraldehyde, and then quenched. 72 hr samples are incubated at room temperature for 72 hr and then cross-linked and quenched by the same protocol. All samples are then denatured by adding SDS gel loading buffer and boiled prior to gel loading. Each sample is separated in SDS-PAGE gels and analyzed by immunoblotting using anti-TTR antiserum (Polyclonal Rabbit Anti-Human Prealbumin. DAKO Cat# A0002). The density of all TTR bands are quantified using infrared LICOR imaging system or Fluorescence Imaging system and reported. Normalization by IgG band using LICOR 925-32232 or Invitrogen 84546.

TTR in human serum = target: T2, TTR in human serum (Homo sapiens, UniProt P02766); assay: FPE assay in human serum; format: binding; settings: whole human serum, FPE concentration-effect
T2 construct: pooled human serum (prepared from human male AB plasma, Sigma; catalog no; H4522; TTR concentration 5 μM); tissue Sigma H4522; host or cells: pooled human serum from human male AB plasma
Excerpt: FPE assay for binding TTR in buffer and human or dog serum. […] The FPE probe is a thioester TTR ligand that is not fluorescent by itself, however upon binding to the T4 binding site of TTR it covalently modifies lysine 15 (K15), creating a fluorescent conjugate. Ligands that bind to the T4 site of TTR will decrease FPE probe binding as observed by lower fluorescence. […] The change in fluorescence (λex=328 nm and λem=384 nm) were monitored using a microplate spectrophotometer reader (SpectraMax M5) for 6 hr at rt. […] The change in fluorescence (λex=328 nm and λem=384 nm) were monitored using a microplate spectrophotometer reader (SpectraMax M5) for 6 hr at rt.

[2] = target: T3, human serum albumin (HSA) (Homo sapiens, UniProt P02768); assay: biochemical
Method: Isothermal Titration Calorimetry (ITC). Binding experiments were performed using MicroCal PEAQ-ITC at 25° C. […] 19 injections of ligand (2.0 μL each) were injected into the ITC cell (at 25° C.) to the point that TTR was fully saturated with ligand. Calorimetric data were plotted and fitted using the standard single-site binding model.

TTR = target: T4, TTR (Canis lupus familiaris, UniProt A0A8I3NFK0); assay: 7-day repeat oral dosing in dogs, TTR occupancy by FPE; format: in vivo, beagle dog
T4 construct: from tissue; host or cells: serum of orally dosed beagle dogs
Method: FPE assay for binding TTR in buffer and human or dog serum. […] The FPE probe is a thioester TTR ligand that is not fluorescent by itself, however upon binding to the T4 binding site of TTR it covalently modifies lysine 15 (K15), creating a fluorescent conjugate. Ligands that bind to the T4 site of TTR will decrease FPE probe binding as observed by lower fluorescence. The FPE assay was also adapted for use with dog serum. FPE with TTR in buffer: An aliquot of 98 μL of TTR in PBS (pH 7.4, final concentration: 2.5 μM) was mixed with 1 μL of test compounds (2.5 μM) and 1 μL of FPE probe (0.18 mM stock solution in DMSO: final concentration: 1.8 μM). The change in fluorescence (λex=328 nm and λem=384 nm) were monitored using a microplate spectrophotometer reader (SpectraMax M5) for 6 hr at rt. […] The change in fluorescence (λex=328 nm and λem=384 nm) were monitored using a microplate spectrophotometer reader (SpectraMax M5) for 6 hr at rt.
Blood (approximately 1.5 mL) was collected from a jugular vein into serum separator tubes on study day 1 (predose D1), pre-dose study day 7 (predose D7), and at 1 hr post-dose study day 7 (postdose D7). These serum samples were analyzed for their TTR occupancy using the FPE assay described above.

[3] = target: T3, human serum albumin (HSA); assay: Gel filtration and dialysis binding to human serum albumin; set-up: albumin from human serum; Sigma Aldrich, catalog no.: A3782; purchased Sigma Aldrich A3782; host or cells: human serum; settings: 30 μM compound, 600 μM albumin
Method: The concentration of HSA (i.e. concentration at time zero) was also determined using NanoDrop™ (based on calibration curves of known HAS concentrations). […] The concentration of test compounds in these fractions (i.e. conc. at time zero) was evaluated using HPLC (based on calibration curves of known concentration of test compounds). 500 μL of each HSA/test compound samples was then added to a Slide-A-Lyzer Dialysis Cassette G2 (3.5K MWCO, Thermo Scientific, catalog no. P187722). The dialysis Cassettes were placed in 100 ml of assay buffer and stirred at room temperature. After 24 hr, the samples were removed from dialysis cassette and the volume was measured. The concentration of HAS and test compounds were determined using NanoDrop™ and HPLC as described above.

tetrameric TTR [4] = target: T1, tetrameric TTR; assay: Phase 2 study, fluorescence probe (FPE) assay ex vivo; format: in vivo; settings: individual with V30M TTR mutation, 800 mg b.i.d.
Method: Aliquots of each serum sample are plated in 96 well plates. The fluorescence changes (λex=328 nm and λem=384 nm) after addition of probe are monitored every 15 min using a fluorescent capable microplate for 6 hr at RT.
(§1) The phase 2 clinical study was performed essentially as described in Example 3. A total of 49 patents were included instead of 45: 16 receiving 400 mg bid; 16 receiving 800 mg bid; and 17 receiving placebo.
TTR stabilization was measured ex vivo using the FPE and Western blot assays described at the beginning of the examples section. TTR stabilization was measured in vivo by monitoring TTR serum concentrations in trial participants.

tetrameric TTR [5] = target: tetrameric TTR (Homo sapiens, UniProt P02766); assay: Western blot for stabilization of tetrameric TTR, Phase 1 subjects; format: in vivo; set-up: from tissue; host or cells: serum / blood plasma of dosed healthy human volunteers; settings: 800 mg AG10 HCl q12h, day 12 predose (trough) and post dose (peak); 72h acidification
Method: as §2

[6] = Phase 2 study, tolerability in ATTR-CM patients; format: in vivo, human; settings: symptomatic ATTR-CM patients, 28 days
Method: Screening and randomization will be followed by a 28-day blinded, placebo-controlled treatment period. Approximately 45 subjects are planned to enroll in the Phase 2 study.
as §1

T3 sequence (P02768 25-609): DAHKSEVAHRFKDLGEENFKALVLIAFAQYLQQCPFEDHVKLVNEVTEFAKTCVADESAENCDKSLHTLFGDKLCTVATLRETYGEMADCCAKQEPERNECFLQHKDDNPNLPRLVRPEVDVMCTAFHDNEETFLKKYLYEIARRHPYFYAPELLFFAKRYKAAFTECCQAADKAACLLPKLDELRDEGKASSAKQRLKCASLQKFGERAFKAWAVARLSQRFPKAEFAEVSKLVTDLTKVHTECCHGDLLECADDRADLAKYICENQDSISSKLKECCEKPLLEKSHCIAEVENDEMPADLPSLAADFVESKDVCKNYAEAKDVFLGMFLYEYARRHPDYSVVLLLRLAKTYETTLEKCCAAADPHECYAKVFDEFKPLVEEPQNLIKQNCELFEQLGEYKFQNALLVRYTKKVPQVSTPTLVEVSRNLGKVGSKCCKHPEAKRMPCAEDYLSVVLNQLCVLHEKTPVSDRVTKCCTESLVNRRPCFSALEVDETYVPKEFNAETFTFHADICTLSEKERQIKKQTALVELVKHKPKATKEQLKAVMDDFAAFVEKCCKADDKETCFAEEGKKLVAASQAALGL

Cc1n[nH]c(C)c1CCCOc1cc(C(=O)O)ccc1F [AG10, 3-(3-(3,5-dimethyl-1H-pyrazol-4-yl)propoxy)-4-fluorobenzoic acid]
TTR stabilization at day 28 (western blot) (tetrameric TTR [1]): near complete TTR stabilization | concentration at which complete occupancy is achieved (TTR in human serum): ≥ 10 µM | Kd [2]: ~8 µM | TTR occupancy at the steady state trough (TTR; 50, 100, 200 mg/kg/d oral, day 7 pre-dose): 81-94% | TTR occupancy at steady state Cmax (TTR; all AG10 treated groups, day 7 post-dose (1 hr)): > 97% | concentration bound to HSA following dialysis vs buffer for 24 hr [3]: 7.8 ± 0.1 µM | concentration bound to albumin at time 0 (immediately after gel filtration) [3]: 18.3 ± 0.98 µM | target engagement at day 14 (FPE) (tetrameric TTR [4]): near complete target engagement | stabilization of tetrameric TTR (Western blot) (tetrameric TTR [5]): full stabilization of tetrameric TTR | tolerability [6]: well tolerated
